From patent publication US20190045784A1 (priority 2016, published 2019)
Like-named read-outs stand apart in the source and are kept apart here.

Tests used:
Format in all cases: cell-based
Conditions in all cases: 7 days after inoculation
[1] = tested on: Phytophthora infestans
[2] = tested on: Botrytis cinerea; assay: Activity against the grey mold Botrytis cinerea in the microtiter plate test (Botrci)
[3] = tested on: Septoria tritici; assay: Activity against leaf blotch on wheat caused by Septoria tritici (Septtr), microtiter test
[4] = tested on: Alternaria solani; assay: Activity against early blight caused by Alternaria solani (Alteso), microtiter test

Compound: Cn1cc(C(=O)Nc2ccccc2-c2cc(F)c(F)c(F)c2)c(C(F)F)n1 [Fluxapyroxad, fluxapyroxad]
- Observed efficacy ([1]; 0.016 ppm): 2%
- Observed efficacy ([1]; 0.063 ppm): 18%
- Observed efficacy ([2]; 0.016 ppm): 0%
- Observed efficacy ([3]; 0.000063 ppm): 1%
- Observed efficacy ([3]; 0.001 ppm): 7%
- Observed efficacy ([3]; 0.004 ppm): 9%
- Observed efficacy ([3]; 0.016 ppm): 17%
- Observed efficacy ([4]; 0.00025 ppm): 7%
- Observed efficacy ([4]; 0.004 ppm): 31%
- Observed efficacy ([4]; 0.016 ppm): 69%

Compound: Cn1c(=O)c2sc3c(=O)n(C)c(=O)c3sc2c1=O [No. I-2, 2,6-dimethyl-1H,5H-[1,4]dithiino[2,3-c:5,6-c′]dipyrrole-1,3,5,7(2H,6H)-tetraone]
- Observed efficacy ([1]; 0.25 ppm): 0%
- Observed efficacy ([1]; 1 ppm): 28%
- Observed efficacy ([3]; 0.063 ppm): 35%
- Observed efficacy ([4]; 0.25 ppm): 14%

Compound: Nc1nc(OCc2ccc(F)cc2)ncc1F [No. I-4, 5-fluoro-2-(4-fluorophenylmethoxy)pyrimidin-4 amine]
- Observed efficacy ([4]; 1 ppm): 0%

Compound: Cc1ccc(COc2ncc(F)c(N)n2)cc1 [No. I-5, 5-fluoro-2-(p-tolylmethoxy)pyrimidin-4-amine]
- Observed efficacy ([1]; 16 ppm): 14%
- Observed efficacy ([2]; 16 ppm): 24%
